Experimental data published in the supplement of paper PMC5908809.

What was measured:
NK-YS (IL-2 2.5 ng/mL) [1] = assay: drug sensitivity score (DSS) (DSS units); higher = more sensitive; extreme values may be limits of the assay; settings: 72 h
SNK-6 (IL-2 2.5 ng/mL) [2] = assay: as above; settings: 72 h
NK-92 (IL-2 2.5 ng/mL) [3] = assay: as above; settings: 72 h
NKL (IL-2 2.5 ng/mL) [4] = assay: as above; settings: 72 h
DERL-7 (IL-2 2.5 ng/mL) [5] = assay: as above; settings: 72 h
IMC-1 (IL-2 20 ng/mL) [6] = assay: as above; settings: 72 h
[7] = tested on: normal primary NK cells, pool 3 (3 donors) (IL-2 2.5 ng/mL); assay: as above; settings: 72 h
KAI3 (IL-2 2.5 ng/mL) [8] = assay: as above; settings: 72 h
[9] = tested on: normal primary NK cells, pool 1 (3 donors), resting (IL-2 0 ng/mL); assay: as above; settings: 72 h
[10] = tested on: normal primary NK cells, pool 2 (3 donors) (IL-2 2.5 ng/mL); assay: as above; settings: 72 h
[11] = tested on: normal primary NK cells, pool 1 (3 donors) (IL-2 2.5 ng/mL); assay: as above; settings: 72 h
KHYG-1 (IL-2 2.5 ng/mL) [12] = assay: as above; settings: 72 h
YT (IL-2 2.5 ng/mL) [13] = assay: as above; settings: 72 h
[14] = tested on: normal NK cells expanded with K562-aAPC; assay: as above; settings: 72 h; IL-2 2.5 ng/mL
Experimental: (§1)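 Drug sensitivity and resistance testing on K562-aAPC-expanded normal NK cells: 5 concentrations (10-fold steps over a 10,000-fold range), 72 h at 37 °C, viability by CellTiter-Glo normalised to DMSO and benzethonium chloride controls; DSS from the fitted curve.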

[15] = tested on: normal NK cells expanded with K562-aAPC; assay: percent inhibition of viability; higher = more inhibition; settings: 72 h, IL-2 2.5 ng/mL
Experimental: as §1

NK-YS (IL-2 2.5 ng/mL) [16] = assay: as above; settings: 72 h
SNK-6 (IL-2 2.5 ng/mL) [17] = assay: as above; settings: 72 h
NK-92 (IL-2 2.5 ng/mL) [18] = assay: as above; settings: 72 h
NKL (IL-2 2.5 ng/mL) [19] = assay: as above; settings: 72 h
DERL-7 (IL-2 2.5 ng/mL) [20] = assay: as above; settings: 72 h
IMC-1 (IL-2 20 ng/mL) [21] = assay: as above; settings: 72 h
[22] = tested on: normal primary NK cells, pool 3 (3 donors) (IL-2 2.5 ng/mL); assay: as above; settings: 72 h
KAI3 (IL-2 2.5 ng/mL) [23] = assay: as above; settings: 72 h
[24] = tested on: normal primary NK cells, pool 1 (3 donors), resting (IL-2 0 ng/mL); assay: as above; settings: 72 h
[25] = tested on: normal primary NK cells, pool 2 (3 donors) (IL-2 2.5 ng/mL); assay: as above; settings: 72 h
[26] = tested on: normal primary NK cells, pool 1 (3 donors) (IL-2 2.5 ng/mL); assay: as above; settings: 72 h
KHYG-1 (IL-2 2.5 ng/mL) [27] = assay: as above; settings: 72 h
YT (IL-2 2.5 ng/mL) [28] = assay: as above; settings: 72 h

C[C@@H](Oc1ccc2[nH]nc(/C=C/c3cnn(CCO)c3)c2c1)c1c(Cl)cncc1Cl (max concentration tested 1000 nM)
Settings | drug sensitivity score
DERL-7 (IL-2 2.5 ng/mL) [5] | 11.6
IMC-1 (IL-2 20 ng/mL) [6] | 8.86
KAI3 (IL-2 2.5 ng/mL) [8] | 17.6
KHYG-1 (IL-2 2.5 ng/mL) [12] | 21.6
NK-92 (IL-2 2.5 ng/mL) [3] | 12.9
NK-YS (IL-2 2.5 ng/mL) [1] | 12.9
NKL (IL-2 2.5 ng/mL) [4] | 19.4
SNK-6 (IL-2 2.5 ng/mL) [2] | 20.8
YT (IL-2 2.5 ng/mL) [13] | 6.34
[7] | 12.7
[9] | 0.82
[10] | 15.3
[11] | 11.4
[14] | 20.3

percent inhibition of viability [%]
Settings | 0.1 nM | 1 nM | 10 nM | 100 nM | 1000 nM
DERL-7 (IL-2 2.5 ng/mL) [20] | -4.25 | -1.44 | 12.1 | 50 | 100
IMC-1 (IL-2 20 ng/mL) [21] | 2.17 | -5.43 | -8.61 | 21.8 | 98.1
KAI3 (IL-2 2.5 ng/mL) [23] | 2.24 | 4.1 | 25 | 79.6 | 90.2
KHYG-1 (IL-2 2.5 ng/mL) [27] | -1.37 | -1.77 | 23.3 | 101 | 98.7
NK-92 (IL-2 2.5 ng/mL) [18] | -7.71 | -11 | 4.63 | 65.8 | 84.5
NK-YS (IL-2 2.5 ng/mL) [16] | -6.71 | -5.42 | 10.9 | 60.3 | 93
NKL (IL-2 2.5 ng/mL) [19] | -5.85 | 0.25 | 37.2 | 79.9 | 84.6
SNK-6 (IL-2 2.5 ng/mL) [17] | -12 | 0.34 | 23.3 | 95 | 92.3
YT (IL-2 2.5 ng/mL) [28] | -2.34 | -5.3 | -2.2 | 9.63 | 85.6
[15] | -0.71 | -1.93 | 22.3 | 94.3 | 97.8
[22] | -11.8 | -16.6 | 7.47 | 63.4 | 69.5
[24] | -1.49 | -11.6 | -11.3 | 13.6 | 13.4
[25] | -12.2 | -5.79 | 27.6 | 62.9 | 71.7
[26] | -3.85 | -11 | 2.43 | 60.1 | 72.1
